Measured values as given in publication PMC8536575, “Acute effects of the imidacloprid metabolite desnitro-imidacloprid on human nACh receptors relevant for neuronal signaling” (Archives of Toxicology, 2021).

Experiments:
[1] = system: nAChRs on LUHMES neurons; assay: High-throughput Ca2+-imaging of LUHMES neurons (agonist effect); type: cell-based, human
Method: For Ca^2+-imaging, the cells were pre-differentiated for 48 h in cell culture flasks, detached and plated at a density of 20,000 cells and 30,000 cells per well on 0.1% PEI-coated 384-well and 96-well plates (Greiner Bio-One), respectively, for the Ca^2+-imaging. The cells were further differentiated for another 7 days. 50% of the medium was exchanged every 2–3 days.
(§1) Ca^2+-imaging was performed using HT Functional Drug Screening System FDSS/µCELL (Hamamatsu Photonics) at nominal 37 °C. The FDSS/µCell system enables the indirect recording of changes of [Ca^2+]i via a Ca^2+-sensitive fluorescent dye. The fluorescence signal of a complete 384-well plate is acquired at once with a high-speed and high-sensitivity digital ImagEM X2 EM-CCD camera (Electron Multiplying Charge-Coupled Device, Hamamatsu Photonics), but with limited spatial resolution. Therefore, the software only determines the mean fluorescence signal of each well rather than of individual cells. For compound application, the integrated dispenser head with 384 pipette tips was used, which can add the test compound to all wells simultaneously. Cells were preincubated with Cal-520 AM (AAT Bioquest) at a concentration of 1 µM for 1 h at 37 °C. For recording, the medium was exchanged by a buffer solution containing [mM]: 135 NaCl, 5 KCl, 0.2 MgCl2, 2.5 CaCl2, 10 HEPES, and 10 D-glucose, pH 7.4. Test compound application was executed after obtaining a 1.5 min baseline recording. Where applicable, a second application was executed 4.5 min after the first application. The total recording never exceeded 8 min.
(§2) For the high-throughput Ca^2+-imaging data obtained in LUHMES cells, an offset correction using the FDSS software (version 3.2) was performed. Afterward, the data were exported and further analyzed with scripts written in R (version 3.6.3) (R Core Team [2020]). The concentration–response curves were fitted using a log-logistic model described by Ritz et al. ([2015]), utilizing the R package drc with its function drm() and LL2.2() with the following equation: f(x) = d/[1 + exp(b(log(x) − ẽ))] (Ritz et al. [2015]). The logarithm of the half-maximal effective concentration (logEC50) between 0 and the upper limit (d), which was set to 1, is represented by ẽ, x denotes the concentration, and b stands for the slope parameter (Ritz et al. [2015]). In cases with normalizations to responses induced by other compounds, the function LL2.3() was used with a variable upper limit (d; Ritz et al. [2015]). The same equation was used to determine the half-maximal inhibitory concentration (logIC50). Then the logEC50 and logIC50 values were converted into the pIC50 and pEC50 values, which are the negative logarithms to base 10.

[2] = system: nAChRs on LUHMES neurons; assay: Desensitization of nAChR agonist-evoked [Ca2+]i responses of LUHMES neurons; type: cell-based, human
Method: as §1, §2
Fig. 4 Desensitizing effects of DN-IMI and IMI-olefin on nAChRs. LUHMES neurons differentiated in 384-well plates were pretreated with various concentrations of DN-IMI or IMI-olefin for 4.5 min before different nAChR agonists were applied and [Ca^2+]i signals were recorded. […] Note the treatment scheme (upper right corner), illustrating the experimental design. […] Note the treatment scheme (upper right corner), illustrating the experimental design. Detailed data on n numbers are found in Table S6

[3] = molecular target: T1, human α7 nAChR (Homo sapiens, UniProt P36544); assay: Two-electrode voltage-clamp recordings, Xenopus laevis oocytes expressing human α7 nAChR; type: cell-based
T1 construct: expressed in transfected cells; host or cells: Xenopus laevis oocytes, injection of 30 ng mRNA (pCDNA3.1, T7 transcript)
T1 sequence (P36544 23-502): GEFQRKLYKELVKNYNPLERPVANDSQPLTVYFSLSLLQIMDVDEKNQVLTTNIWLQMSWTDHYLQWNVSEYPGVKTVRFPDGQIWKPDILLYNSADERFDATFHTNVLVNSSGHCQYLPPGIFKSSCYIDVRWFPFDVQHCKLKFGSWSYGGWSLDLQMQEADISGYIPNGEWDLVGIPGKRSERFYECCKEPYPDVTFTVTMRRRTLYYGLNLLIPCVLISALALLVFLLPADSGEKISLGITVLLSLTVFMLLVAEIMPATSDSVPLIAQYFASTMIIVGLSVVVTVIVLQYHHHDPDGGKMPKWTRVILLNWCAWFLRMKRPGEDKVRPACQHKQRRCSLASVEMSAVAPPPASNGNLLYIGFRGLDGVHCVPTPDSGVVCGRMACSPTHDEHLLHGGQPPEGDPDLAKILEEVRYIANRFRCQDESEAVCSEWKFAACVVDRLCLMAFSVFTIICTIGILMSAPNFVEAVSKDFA

[4] = system: mice; conditions: ref Chao and Casida [1997], Tomizawa et al. [2000], [2001]; cited from earlier work

In the case of NC1=NCCN1Cc1ccc(Cl)nc1 [DN-IMI, desnitro-imidacloprid], the “pEC50 of [Ca2+]i response (peak amplitude)” value ([1]; LUHMES neurons, absence of PNU, normalized to the maximal response stimulated by DN-IMI, tested ≤ 100 µM) is reported as 6.6, the “increase of the maximal amplitude by PNU” value ([1]; PNU-120596 10 µM) is reported as “around 40%” and the “upper asymptote, % of the maximal response” value ([1]; absence of PNU) is reported as 53%. The “relative half maximum (turning point)” value ([1]; absence of PNU, normalized to maximal response to DN-IMI in presence of PNU) was 6.8 ± 0.04 -log(M), the “concentrations triggering [Ca2+]i responses” value ([1]; human neurons) was ≥ 100 nM and the “BMC for 20% response” value ([1]; in different systems ([Ca2+]i signaling and single nAChR data)) was 100 to 300 nM. The “relative half maximum (turning point)” value ([1]; presence of PNU (10 µM)) was 6.5 ± 0.03 -log(M), the “upper asymptote, % of the maximal response” value ([1]; presence of PNU (10 µM)) was 93% and the “concentrations inhibiting subsequent activation of nAChRs (desensitization)” value ([2]; BMR10, LUHMES) was ≥ 10 nM. For the same compound, the “times more potent than IMI (desensitization)” value ([2]; compared to effects of IMI in Loser et al. [2021a]) was ~ 70 times, the “BMC for receptor desensitization” value ([2]; for a 20% effect) was ~ 17 nM and the “pIC50 for desensitization of the nicotine-evoked response” value ([2]; pretreatment […], 3 µM nicotine) was 6.9. The EC50 [3] was 31.6 µM, the “estimated maximum, % of the maximal response to nicotine” value [3] was ~ 81% and the “higher potency of DN-IMI than nicotine” value ([3]; EC25 comparison on the receptors other than α4β2 (HS): α7 and α3β4) was “about 0.6 log-steps”. The “absolute EC25” value ([3]; from curve-fitted concentration–response data) was 7.6 µM, the estimated maximum ([3]; normalized to nicotine (1 mM)) was ~ 0.81 and the Emax ([3]; read-out: estimated maximum, % of the maximal response to nicotine) was 83%. The LD50 [4] was 6 to 24 mg/kg.
